Source: US9296751B1, “Indolizino[3,2-c]quinoline derivatives, pharmaceutically acceptable salt thereof, preparation method thereof and pharmaceutical composition for treatment of cystic fibrosis containing the same as active ingredient” (INDUSTRY-ACADEMIC COOPERATION FOUNDATION, YONSEI UNIVERSITY, priority 2014, dated 2016)

Key:
[1] = test system: Adipose-derived stem cells; test: Migration assay (mechanical wound, Incucyte zoom); type: cell-based; conditions: 0.1, 1, 10, 50 μM, 24 and 48 hours; FIG. 5 and FIG. 6
Procedure: Adipose-derived stem cells are implanted into a 96-well plate in a number of 3×10^4/well and cultured for 24 hours. Then, media change into high-glucose DMEM is carried out and the cells are cultured overnight. After starvation, a mechanical wound is made and the cells are treated with each of the compounds according to Examples at a different concentration (0.1, 1, 10, 50 μM). Next, the cells are incubated for 24 hours and 48 hours under the conditions of 37° C. and 5% CO2. Then, the Incucyte zoom (Essen Bioscience, USA) is photographed from the time point of treatment with each compound at an interval of 1 hour to analyze the migration of ASC.

[2] = target: T1, human cystic fibrosis conductance transmembrane regulator (CFTR) (Homo sapiens, UniProt P13569); test: Effect upon CFTR chloride ion channel activity (YFP fluorescence quenching by iodide influx in FRT cells); type: cell-based; conditions: for Emax at 30 µM: FRT, 10 min, final concentration of 30 μM, reaction for 10 minutes, ratio based on the CFTR activity maximized by forskolin
T1 construct: expressed in transfected cells; host or cells: FRT cells (Fischer rat thyroid epithelial cells)
T1 sequence (P13569 whole entry): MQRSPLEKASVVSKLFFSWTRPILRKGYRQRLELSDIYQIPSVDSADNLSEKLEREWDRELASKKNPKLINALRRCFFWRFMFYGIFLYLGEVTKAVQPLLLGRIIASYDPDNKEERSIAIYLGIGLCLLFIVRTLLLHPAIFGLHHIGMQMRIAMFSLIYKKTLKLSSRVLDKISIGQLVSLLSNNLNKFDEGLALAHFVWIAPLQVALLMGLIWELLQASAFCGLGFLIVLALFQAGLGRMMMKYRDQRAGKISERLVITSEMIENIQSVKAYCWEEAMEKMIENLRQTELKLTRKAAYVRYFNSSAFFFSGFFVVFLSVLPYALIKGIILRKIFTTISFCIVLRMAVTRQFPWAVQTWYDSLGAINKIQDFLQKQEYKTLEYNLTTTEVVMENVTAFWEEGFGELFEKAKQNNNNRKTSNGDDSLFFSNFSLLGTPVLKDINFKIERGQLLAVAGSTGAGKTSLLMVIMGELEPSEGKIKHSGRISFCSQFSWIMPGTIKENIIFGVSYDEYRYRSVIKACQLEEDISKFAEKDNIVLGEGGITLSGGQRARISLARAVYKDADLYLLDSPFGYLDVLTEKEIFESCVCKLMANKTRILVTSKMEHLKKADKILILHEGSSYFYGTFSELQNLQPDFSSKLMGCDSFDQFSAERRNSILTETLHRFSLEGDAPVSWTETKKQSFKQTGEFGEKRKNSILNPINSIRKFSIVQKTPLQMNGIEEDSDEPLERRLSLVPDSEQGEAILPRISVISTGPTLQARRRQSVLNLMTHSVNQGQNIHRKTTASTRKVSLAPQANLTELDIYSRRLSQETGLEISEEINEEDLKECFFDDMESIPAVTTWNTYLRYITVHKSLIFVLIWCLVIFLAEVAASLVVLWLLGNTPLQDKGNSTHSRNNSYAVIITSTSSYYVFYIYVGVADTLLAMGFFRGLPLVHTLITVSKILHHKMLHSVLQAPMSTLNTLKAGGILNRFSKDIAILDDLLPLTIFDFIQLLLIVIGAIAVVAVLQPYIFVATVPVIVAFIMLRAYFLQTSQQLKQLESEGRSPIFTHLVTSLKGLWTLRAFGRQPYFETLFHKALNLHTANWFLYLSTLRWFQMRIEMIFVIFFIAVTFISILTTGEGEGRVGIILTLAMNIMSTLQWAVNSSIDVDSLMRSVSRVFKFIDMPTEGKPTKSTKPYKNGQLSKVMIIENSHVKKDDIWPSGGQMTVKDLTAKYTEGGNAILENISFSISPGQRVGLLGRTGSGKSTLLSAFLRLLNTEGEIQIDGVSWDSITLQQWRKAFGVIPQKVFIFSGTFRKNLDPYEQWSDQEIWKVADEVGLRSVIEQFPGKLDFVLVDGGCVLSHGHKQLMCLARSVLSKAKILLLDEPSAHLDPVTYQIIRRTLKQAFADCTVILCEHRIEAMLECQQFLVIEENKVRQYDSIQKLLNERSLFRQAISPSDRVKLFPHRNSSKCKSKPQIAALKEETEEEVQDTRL
Procedure: FRT cells expressing […] specific to human cystic fibrosis conductance transmembrane regulator (CFTR) and iodide ions are cultured in the Coon's modified F-12 culture medium for 48 hours on a 96-well plate. Each well of the plate containing the cultured cells is washed three times with 200 μl of PBS buffer, and then 100 μl of PBS buffer is added to each well. The indolizino[3,2-c]quinoline derivative according to each Example is introduced to each well to a final concentration of 30 μM, followed by reaction for 10 minutes. After the completion of the reaction, the 96-well is mounted to a FLUOstar Omega microplate reader (BMG LABTECH) and 100 μl of NaI solution is added to each well. Then, YFP fluorescence reduced by the iodide ions introduced to the cells through CFTR is recorded at an interval of 0.4 seconds for 24 seconds in total, thereby evaluating the effect of each compound upon CFTR activity.
The effect of each indolizino[3,2-c]quinoline derivative upon CFTR chloride ion channel activity is calculated as an activity ratio based on the CFTR activity maximized by a well-known CFTR agonist, forskolin.

[3] = test system: Adipose-derived stem cells (ASC) and melanoma cells (B16 melanoma cells); test: Cytotoxicity by MTT assay; type: cell-based; conditions: at a high concentration of 100 μM, FIG. 3 and FIG. 4
Procedure: (§1) Adipose-derived stem cells (ASC) and melanoma cells (B16 melanoma cells) are cultured in high-glucose Dulbecco's modified Eagle's medium (DMEM) with 10% fetal bovine serum (FBS) introduced thereto. Each type of cells is cultured in an incubator under the conditions of 37° C. and 5% CO2.
(§2) Cell survivability and cytotoxicity are determined in a 96-well plate by MTT assay. Each type of cells is implanted into a 6-well plate in a number of 3×10^4/well (ASC) and 4×10^4/well and cultured for 24 hours. Then, media change into high-glucose DMEM is carried out for both ASC and B16 and cultured overnight. After starvation, the cells are treated with each of the compounds according to Examples at a different concentration (0.1, 1, 10, 50, 100 μM), and further incubated for 24 hours and 48 hours under the conditions of 37° C. and 5% CO2. Then, MTT solution (5 mg/ml in PBS) is added to each well in an amount corresponding to 1/20 of the media volume, and incubation is carried out at 37° C. for 2 hours so that the cells are colored. After that, the supernatant is removed and dimethyl sulfoxide is added to carry out discoloration. The solution is determined by using an enzyme-linked immunosorbent assay (ELISA) reader at a wavelength of 595 nm.

[4] = test system: Adipose-derived stem cells (ASC); test: Proliferation/viability MTT assay, adipose-derived stem cells; type: cell-based; conditions: 0.1-100 μM, 24 and 48 hours, FIG. 2
Procedure: as §1, §2

| melting point [°C] | Emax at 30 µM [2] [%] | CFTR activity ratio, result in words ([2]; 30 μM, comment on Table 2) | Structure (SMILES) | migration ability of adipose-derived stem cells [1] | cytotoxicity [3] | proliferation of adipose-derived stem cells [4] |
| --- | --- | --- | --- | --- | --- | --- |
| 205.6 to 206.3 | 44 |  | c1ccc2c(-c3nc4ccccc4c4cc5ccccn5c34)cccc2c1 [Example 12, 6-(Naphthalen-1-yl)indolizino[3,2-c]quinoline] | has migration ability | no toxicity | highly effective |
| 177.9 to 178.3 | 82 | high activity ratio | c1ccc(-c2nc3ccccc3c3cc4ccccn4c23)nc1 [Example 14, 6-(Pyridin-2-yl)indolizino[3,2-c]quinoline] |  |  | highly effective |
| 112.4 to 113.2 |  |  | Cc1cccn2c1cc1c3ccccc3nc(-c3ccco3)c12 [Example 23, 6-(Furan-2-yl)-11-methylindolizino[3,2-c]quinoline] |  |  | highly effective |
| 212 to 212.7 |  |  | Brc1ccc2cc3c4ccccc4nc(-c4cccc5ccccc45)c3n2c1 [Example 27, 9-Bromo-6-(4naphthalen-1-yl)indolizino[3,2-c]quinoline] | has migration ability | no toxicity | highly effective |
